Assay results as given in patent US20210213010A1, “TLR7/8 AGONISTS AND LIPOSOME COMPOSITIONS” (Torque Therapeutics, Inc., priority 2018, published 2021).

How the values were obtained:
[1] = Cryo-TEM of remote loaded liposomes (intraliposomal precipitation); assay type: physicochemical; conditions: remote loaded liposomes, Example 75
Description: CryoTEM samples of 3 μL of liposome solution was placed on a lacy carbon 300 mesh copper TEM grid, blotted and plunge frozen in liquid ethane using a FEI Vitrobot Mark IV. Samples were imaged using a FEI Tecnai G2 20 TWIN transmission electron microscope operated at 200 keV in low dose mode with a FEI High-Sensitive (HS) 4 k×4 k Eagle camera.

[2] = tested on: RAW Blue cells; experiment: Potency of TLR7 agonist compound library in RAW Blue TLR reporter cells; assay type: cell-based; conditions: fold more potent
Description: A general synthesis scheme is shown in FIG. 1A according to the procedure by Wu et al. Immunotherapeutic activity of a conjugate of a Toll-like receptor 7 ligand. Proc. Natl. Acad. Sci. 104, 3990-3995 (2007), with some modifications and in good yields. Final derivatization using standard amide bond formation or reductive amination conditions, gave the desired library of 22 compounds divided into two sets (set 1, 1a-1j and set 2, 2a-2j). Next it was evaluated if the synthesized compounds had retained their activity upon derivatization. As benchmarks, the known TLR agonists Gardiquimod (Gdq, TLR7) and Resiquimod (R848, TLR7/8) were used.

[3] = tested on: B16-F10 tumor; experiment: B16-F10 tumor model with adoptive cell transfer of PMEL cells (Example 80); assay type: in vivo, mouse
Description: Spleens and lymphnodes were harvested from PMEL mice (B6. Cg-Thy1^a/Cy Tg(TcraTcrb)8Rest/J, Jackson Labs) and CD8 T cells purified by Mylteni MACS T cell separation kit. PMEL cells were stimulated and expanded on anti-CD3/CD28 coated plates with mouse IL2/IL7/IL21 cytokines, harvested and loaded with liposomes for evaluation in vivo. PMEL cells at 50×10^6/mL were incubated with liposomes at 10 mM lipid concentration for 60 minutes at 37 C, washed twice and formulated in HBSS prior to injection into the mice. In vivo study details show below. Briefly, 100 ul of 0.5×10^6 B16-F10 cells formulated in HBSS were injected SubQ (SQ) or intra-dermal (ID) and grown for 9 days prior to treatment. 1 day prior to treatment, 4 mg/mouse of cyclophosphamide (CPX) was injected intraperitoneal (IP) with 200 ul at 20 mg/mL in phosphate buffered saline (PBS). There were 10 mice used per group and all treatments were injected intravenous (IV) via tail vein injection, the groups were as follows: • HBSS alone (single dose) • 20×10^6 PMEL cells/mouse (single dose) • 20×10^6 PMEL cells/mouse backpacked with 2.5 antiCD45 Ab/liposome, 10% DOTAP, 35% cholersterol, 0.6% DSPE-PEG, POPC, pH gradient loaded as previously described with Gardiquimod (˜200 nmol Gardiquimod/mouse, single dose) • 20×10^6 PMEL cells/mouse followed by 4 mg/kg Gardiquimod systemically on day 0 (treatment day, day 6, day 13, day 25 • 20×10^6 PMEL cells/mouse followed by 2 mg/kg KRJ2-110 systemically on day 0 (treatment day), day 6, day 13, day 25

[4] = Cytokine/chemokine release kinetics in blood of non-tumor bearing B6D2F1/J mice (Luminex); assay type: in vivo, mouse; conditions: single dose; 4 mg/kg Gdq or 2 mg/kg KRJ2-110 systemic, or loaded PMEL cells; 0-24 hr
Description: Spleens and lymphnodes were harvested from PMEL mice (B6. Cg-Thy1^a/Cy Tg(TcraTcrb)8Rest/J, Jackson Labs) and CD8 T cells purified by Mylteni MACS T cell separation kit. PMEL cells were stimulated and expanded on anti-CD3/CD28 coated plates with mouse IL2/IL7/IL21 cytokines and harvested for use. The cytokine/chemokine release profile in non-tumor bearing B6D2F1/J mice (Jackson Labs) was evaluated by injecting: • 20×10^6 PMEL cells alone, 20×10^6 PMEL cells loaded with 2.5 ant-CD45 Ab/liposome, 10% DOTAP, 35% cholesterol, 0.6% DSPE-PEG, POPC liposomes Gardiquimod pH gradient loaded as previously described (˜200 nmol gardiquimod, single dose) • 4 mg/kg Gdq systemic (no PMEL, single dose) • 2 mg/kg KRJ2-110 systemic (no PMEL, single dose)
Blood was drawn at 0, 0.25, 0.5, 1, 2, 4, 6, 10 and 24 hr and plasma was recovered for cytokine/chemokine quantitation using a Luminex kit. […] IP10 and TNFa are commonly used biomarkers for TLR7 agonists in human studies indicating these may be useful biomarkers in clinical studies for T cells loaded with TLR7 agonists.

[5] = tested on: B16-F10 tumor; experiment: In vivo immune profiling by flow cytometry in B16-F10 tumor bearing mice (Example 87); design: species or system mouse
Description: Spleens and lymphnodes were harvested from PMEL mice (B6. Cg-Thy1^a/Cy Tg(TcraTcrb)8Rest/J, Jackson Labs) and CD8 T cells purified by Mylteni MACS T cell separation kit. PMEL cells were stimulated and expanded on anti-CD3/CD28 coated plates with mouse IL2/IL7/IL21 cytokines, harvested and loaded with liposomes for evaluation in vivo. PMEL cells at 50×10^6/mL were incubated with liposomes at 10 mM lipid concentration for 60 minutes at 37 C, washed twice and formulated in HBSS prior to injection into the mice. Briefly, 100 ul of 1×10^6 B16-F10 cells formulated in HBSS were injected SubQ (SQ) and grown for 10 days prior to treatment. 1 day prior to treatment, 4 mg/mouse of cyclophosphamide (CPX) was injected intraperitoneal (IP) with 200 ul at 20 mg/mL in phosphate buffered saline (PBS). There were 10 mice used per group and all treatments were injected intravenous (IV) via tail vein injection, the groups were as follows: • HBSS alone (single dose) • 20×10^6 PMEL cells/mouse (single dose) • 20×10^6 PMEL cells/mouse backpacked with 1.5% Arg3-Chol, 10% DSTAP, 35% cholesterol, 0.5% DSPE-PEG, DSPC, pH gradient loaded as previously described with KRJ2-110 (single dose) • 20×10^6 PMEL cells/mouse followed by 2 mg/kg KRJ2-110 systemically on day 0 (small molecule delivered 1 hr after cell dose)
Blood was sampled at 24 hr, 4 days and 7 days for plasma isolation and cytokine/chemokine characterization by Luminex. Tissues and organs were harvested on day 4 and 7 for analysis by flow cytometry and Luminex.

- Crystallization within liposomes (Cryo-TEM) [1]: crystallizes inside the liposomes
- Weight of tumor bearing mice ([3]; versus HBSS, PMEL alone and PMEL loaded with Gdq liposomes): more substantial weight loss
SMILES: COCCOc1nc(N)c2nc(O)n(Cc3ccc(CN)cc3)c2n1 [KRJ2-110, 6-amino-9-(4-(aminomethyl)benzyl)-2-(2-methoxyethoxy)-9H-purin-8-ol]
- In vitro potency in a RAW cell assay relative to Gardiquimod [2]: ~10 ×
- B16-F10 tumor growth after adoptive cell transfer ([3]; PMEL cells plus 2 mg/kg KRJ2-110 or 4 mg/kg Gardiquimod systemically, or liposome loaded PMEL): more efficacious
- Proinflammatory cytokines such as IFNg, IL12 in blood [4]: significant increase in proinflammatory cytokines
- Activation of PMEL T cells in LN ([5]; 4 and 7 days after ACT): Increases activation of PMEL T cells in LN
- Exhaustion of PMEL cells (PD1+/LAG3+) ([5]; 4 and 7 days after ACT): Slightly increases exhaustion
- MHCII expression in the tumor ([5]; 4 and 7 days after ACT): Increases MHCII expression in the tumor
- Monocytic and Granulocytic MDSC density in the tumor ([5]; 7 days after ACT): Does not markedly affect MDSC
- Abundance of cDC1 and pDC in the tumor ([5]; after ACT): Transiently increases the abundance of cDC1 and pDC
- Proliferation of PMEL T cells (Ki67) ([5]; blood, spleen and tumor, 4 days after ACT): Virtually no effect on PMEL T cell proliferation
